Test results: patent US11548875B2, “Inhibitor compounds for male contraception” (University of Washington, priority 2018, dated 2023)
Structures can show the parent of a compound that is named as a salt. Where two headings read alike, the source gives them in different places.

Columns and labels:
ALDH1A1 = target: T1, ALDH1A1 (Homo sapiens, UniProt P00352); experiment: Cell-based enzyme assay, retinoic acid production in ALDH1A1/H1299 cells
T1 sequence (P00352 1-501): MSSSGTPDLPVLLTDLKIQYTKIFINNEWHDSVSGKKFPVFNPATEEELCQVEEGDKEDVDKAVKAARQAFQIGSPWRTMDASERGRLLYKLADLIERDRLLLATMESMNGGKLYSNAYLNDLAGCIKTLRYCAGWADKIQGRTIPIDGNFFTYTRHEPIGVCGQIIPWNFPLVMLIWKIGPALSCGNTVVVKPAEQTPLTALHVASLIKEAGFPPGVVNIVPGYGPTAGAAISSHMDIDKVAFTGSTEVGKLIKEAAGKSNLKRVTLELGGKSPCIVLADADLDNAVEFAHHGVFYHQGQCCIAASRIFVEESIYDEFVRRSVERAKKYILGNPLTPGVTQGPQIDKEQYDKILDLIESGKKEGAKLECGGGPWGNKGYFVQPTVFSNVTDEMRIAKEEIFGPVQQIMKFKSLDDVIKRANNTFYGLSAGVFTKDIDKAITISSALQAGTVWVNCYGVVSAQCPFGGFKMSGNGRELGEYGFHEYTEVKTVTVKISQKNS
In short: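 ALDH1A1- or ALDH1A2-stably transfected H1299 cells grown to confluence, then treated 20 h in serum-free RPMI-1640 with 2 μM all-trans-retinal plus varying inhibitor concentrations at 37 °C. Retinoic acid in cells and media quantified; inhibition from RA levels with vs without inhibitor.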

ALDH1A2 = target: T2, ALDH1A2 (Homo sapiens, UniProt O94788); experiment: Inhibitor screening using purified enzymes: ALDH1A2 activity, retinoic acid production by HPLC (5 uM initial screen, then IC50); assay type: biochemical; parameters: histidine-tag (C); made in house; host or cells: bacterial expression (pET28 vector, IPTG induction); conditions: purified enzyme
T2 sequence (O94788 1-518): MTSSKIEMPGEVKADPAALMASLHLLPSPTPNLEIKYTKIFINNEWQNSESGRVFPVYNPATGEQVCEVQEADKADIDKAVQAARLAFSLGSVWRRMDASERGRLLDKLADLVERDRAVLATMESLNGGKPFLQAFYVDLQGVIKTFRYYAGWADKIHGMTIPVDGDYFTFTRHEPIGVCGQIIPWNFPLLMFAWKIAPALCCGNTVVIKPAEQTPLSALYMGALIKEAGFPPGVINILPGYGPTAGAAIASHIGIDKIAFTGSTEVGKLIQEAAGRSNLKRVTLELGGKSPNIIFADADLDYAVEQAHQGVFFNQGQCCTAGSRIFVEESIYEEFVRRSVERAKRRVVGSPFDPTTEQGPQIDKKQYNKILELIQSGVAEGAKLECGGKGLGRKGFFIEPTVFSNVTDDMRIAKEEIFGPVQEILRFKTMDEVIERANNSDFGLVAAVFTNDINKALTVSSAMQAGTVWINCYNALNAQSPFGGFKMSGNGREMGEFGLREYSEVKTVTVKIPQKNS
In short: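 Purified His-tagged human enzymes in 10 mM HEPES pH 8.0, 150 mM KCl, 2 mM EDTA with 2 mM NAD, all-trans-retinal substrate; retinoic acid quantified by HPLC. ALDH1A2 initial screen: 1 μg enzyme, 5 μM retinal, 5 μM inhibitor, 15 min, 37° C; IC50 runs: 0.5 μg enzyme, 0.5 μg retinal, 5 min, 37° C.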

CS(=O)(=O)c1ccc(-c2nn(-c3ccc(OC(F)(F)F)cc3)cc2C(=O)Nc2cccc(F)c2)cc1 [Compound 258, N-(3-Fluorophenyl)-1-(4-trifluoromethoxypheny)-3-[4-(methylsulfonyl)phenyl]-1H-pyrazole-4-carboxamide] gave an EC50 (ALDH1A1; cell-based) of 26.4 µM and an IC50 (ALDH1A2) of 0.112 µM.
CC(=O)Nc1ccsc1C(=O)N1CCN(c2ccc([N+](=O)[O-])c(N3CCCC3)c2)CC1 [Compound 332] gave an EC50 (ALDH1A1) of 0.413 µM and an IC50 (ALDH1A2) of 0.388 µM.
In the case of Cn1cccc1C(=O)N1CCN(c2ccc(NC(=O)CCl)c(N3CCCC3)c2)CC1 [Compound 372, 1-[4-(4-N-Chloroacetyl-3-(pyrrolidin-1-yl)phenyl]piperazin-1-yl](1-methyl-1H-pyrrol-2-yl)methanone], the EC50 (ALDH1A1) is reported as 0.069 µM and the IC50 (ALDH1A2) is reported as 3.6 µM.
COc1ccsc1C(=O)N1CCN(c2ccc([N+](=O)[O-])c(N3CCCC3)c2)CC1 [Compound 329, {4-[4-Nitro-3-(pyrrolidin-1-yl)phenyl]piperazin-1-yl}(3-methoxythiophen-2-yl)methanone] was tested, and the EC50 (ALDH1A1) was < 0.5 µM and the IC50 (ALDH1A2) was 0.079 µM.
CS(=O)(=O)c1ccc(-c2nn(-c3ccc(Cl)cc3)cc2C(=O)Nc2ccccc2O)cc1 [Compound 233, N-(2-Hydroxyphenyl)-3-[4-(methylsulfonyl)phenyl]-1-(4-chloropheny)-1H-pyrazole-4-carboxamide] showed an EC50 (ALDH1A1; cell-based) of 13.2 µM and an IC50 (ALDH1A2) of 0.795 µM.
O=C(c1ccc[nH]1)N1CCN(c2ccc([N+](=O)[O-])c(N3CCCC3)c2)CC1 [Compound 344, {4-[4-Nitro-3-(pyrrolidin-1-yl)phenyl]piperazin-1-yl}(1H-pyrrol-2-yl)methanone] was tested, and the EC50 (ALDH1A1) was < 0.5 µM and the IC50 (ALDH1A2) was 0.264 µM.
With O=C(c1cccc(Cl)c1)N1CCN(c2ccc([N+](=O)[O-])c(N3CCCC3)c2)CC1 [Compound 341, 3-Chlorophenyl-1-{4-[4-nitro-3-(pyrrolidin-1-yl)phenyl]piperazin-1-yl}methanone] the EC50 (ALDH1A1) was < 0.5 µM and the IC50 (ALDH1A2) was 1.45 µM.
CS(=O)(=O)c1ccc(-c2nn(-c3ccc(C#N)cc3)cc2C(=O)Nc2cccc(C(F)(F)F)c2)cc1 [Compound 262, 1-(4-Cyanophenyl)-N-(3-trifluoromethylphenyl)-3-[4-(methylsulfonyl)phenyl]-1H-pyrazole-4-carboxamide] was tested, and the EC50 (ALDH1A1; cell-based) was > 20 µM and the IC50 (ALDH1A2) was 0.352 µM.
Compound CS(=O)(=O)c1ccc(-c2nn(-c3ccccc3)cc2C(=O)Nc2cccc(F)c2)cc1 [Compound 178, 3-(4-(Methylsulfonyl)phenyl)-N-(3-fluorophenyl)-1-phenyl-1H-pyrazole-4-carboxamide] has an EC50 (ALDH1A1; cell-based) of 5.5 µM and an IC50 (ALDH1A2) of 0.192 µM.
In the case of “3-{4-[(Chloroacetyl)amino]phenyl}-N-(3-fluorophenyl)-1-phenyl-1H-pyrazole-4-carboxamide [Compound 294]”, the EC50 (ALDH1A1; cell-based) is reported as < 0.005 µM and the IC50 (ALDH1A2) is reported as 0.025 µM.
With Nc1ccsc1C(=O)N1CCN(c2ccc([N+](=O)[O-])c(N3CCCC3)c2)CC1 [Compound 331, {4-[4-Nitro-3-(pyrrolidin-1-yl)phenyl]piperazin-1-yl}(3-aminothiophen-2-yl)methanone hydrochloride] the EC50 (ALDH1A1) was 0.088 µM and the IC50 (ALDH1A2) was 0.062 µM.
Cc1cc(C(=O)N2CCN(c3ccc([N+](=O)[O-])c(N4CCCC4)c3)CC2)sc1C [Compound 327, {4-[4-Nitro-3-(pyrrolidin-1-yl)phenyl]piperazin-1-yl}(4,5-dimethylthiophen-2-yl)methanone] was tested, and the EC50 (ALDH1A1) was > 0.5 µM and the IC50 (ALDH1A2) was 0.313 µM.
For CS(=O)(=O)c1ccc(-c2nn(-c3ccccc3)cc2C(=O)Nc2cccc(F)c2O)cc1 [Compound 231, N-(3-Fluoro-2-hydroxyphenyl)-3-[4-(methylsulfonyl)phenyl]-1-phenyl-1H-pyrazole-4-carboxamide], the EC50 (ALDH1A1; cell-based) was > 20 µM and the IC50 (ALDH1A2) was 0.323 µM.
CS(=O)(=O)c1ccc(-c2nn(-c3cccc(C#N)c3)cc2C(=O)Nc2ccc(F)c(F)c2)cc1 [Compound 269, 1-(3-Cyanophenyl)-N-(3,4-difluorophenyl)-3-[4-(methylsulfonyl)phenyl]-1H-pyrazole-4-carboxamide] gave an EC50 (ALDH1A1; cell-based) of 3.56 µM and an IC50 (ALDH1A2) of 0.238 µM.
CC(=O)n1cccc1C(=O)N1CCN(c2ccc([N+](=O)[O-])c(N3CCCC3)c2)CC1 [Compound 347, {4-[4-Nitro-3-(pyrrolidin-1-yl)phenyl]piperazin-1-yl}(1-acetyl-pyrrol-2yl)methanone] was tested, and the EC50 (ALDH1A1) was 0.33 µM and the IC50 (ALDH1A2) was 0.042 µM.
For CCOc1ccsc1C(=O)N1CCN(c2ccc([N+](=O)[O-])c(N3CCCC3)c2)CC1 [Compound 326, {4-[4-Nitro-3-(pyrrolidin-1-yl)phenyl]piperazin-1-yl}(3-ethoxythiophen-2-yl)methanone], the EC50 (ALDH1A1) was 0.44 µM and the IC50 (ALDH1A2) was 0.058 µM.
O=C(c1ccc(Cl)cc1)N1CCN(c2ccc([N+](=O)[O-])c(N3CCCC3)c2)CC1 [Compound 342, 4-Chlorophenyl-1-{4-[4-nitro-3-(pyrrolidin-1-yl)phenyl]piperazin-1-yl}methanone] was tested, and the EC50 (ALDH1A1) was 0.468 µM and the IC50 (ALDH1A2) was 4.56 µM.
COc1ccc(C(=O)N2CCN(c3ccc([N+](=O)[O-])c(N4CCCC4)c3)CC2)cc1 [Compound 345, 4-Methoxyphenyl-1-{4-[4-nitro-3-(pyrrolidin-1-yl)phenyl]piperazin-1-yl}methanone] was tested, and the EC50 (ALDH1A1) was < 0.5 µM and the IC50 (ALDH1A2) was 3.99 µM.
With O=C(c1ccc(F)s1)N1CCN(c2ccc([N+](=O)[O-])c(N3CCCC3)c2)CC1 [Compound 334, {4-[4-Nitro-3-(pyrrolidin-1-yl)phenyl]piperazin-1-yl}(5-fluorothiophen-2-yl)methanone] the EC50 (ALDH1A1) was 0.26 µM and the IC50 (ALDH1A2) was 1.33 µM.
In the case of Cn1cccc1C(=O)N1CCN(c2ccc([N+](=O)[O-])c(N3CCCC3)c2)CC1 [Compound 343, [4-(4-Nitro-3-(pyrrolidin-1-yl)phenyl)piperazin-1-yl](1-methyl-1H-pyrrol-2-yl)methanone], the EC50 (ALDH1A1) is reported as < 0.5 µM and the IC50 (ALDH1A2) is reported as 1.94 µM.
CS(=O)(=O)c1ccc(-c2nn(-c3ccccc3)cc2C(=O)Nc2cccc(O)c2)cc1 [Compound 211, 3-(4-(Methylsulfonyl)phenyl)-N-(3-hydroxyphenyl)-1-phenyl-1H-pyrazole-4-carboxamide] showed an EC50 (ALDH1A1; cell-based) of 2 µM and an IC50 (ALDH1A2) of 0.081 µM.
CCc1ccc(C(=O)N2CCN(c3ccc([N+](=O)[O-])c(N4CCCC4)c3)CC2)s1 [Compound 323, {4-[4-Nitro-3-(pyrrolidin-1-yl)phenyl]piperazin-1-yl}(5-ethylthiophen-2-yl)methanone] gave an EC50 (ALDH1A1) of 0.195 µM and an IC50 (ALDH1A2) of 0.103 µM.
Cn1cccc1C(=O)N1CCN(c2ccc(NC(=O)C(Cl)Cl)c(N3CCCC3)c2)CC1 [Compound 367, 1-[4-(4-N-Dichloroacetyl-3-(pyrrolidin-1-yl)phenyl]piperazin-1-yl](1-methyl-1H-pyrrol-2-yl)methanone] showed an EC50 (ALDH1A1) of 0.244 µM and an IC50 (ALDH1A2) of 2.3 µM.
CS(=O)(=O)c1ccc(-c2nn(-c3cccc(C#N)c3)cc2C(=O)Nc2cccc(F)c2)cc1 [Compound 268, 1-(3-Cyanophenyl)-N-(3-fluorophenyl)-3-[4-(methylsulfonyl)phenyl]-1H-pyrazole-4-carboxamide] showed an EC50 (ALDH1A1; cell-based) of 2.43 µM and an IC50 (ALDH1A2) of 0.84 µM.
CN(C)c1ccc(C(=O)N2CCN(c3ccc([N+](=O)[O-])c(N4CCCC4)c3)CC2)cc1 [Compound 346, 4-Dimethylaminophenyl-1-{4-[4-nitro-3-(pyrrolidin-1-yl)phenyl]piperazin-1-yl}methanone] was tested, and the EC50 (ALDH1A1) was < 0.5 µM and the IC50 (ALDH1A2) was 5.69 µM.
